These compounds were tested against sigma receptors (assay: Inhibition of 3H-DTG binding to sigma receptors in rat brain in vitro). Conditions: 2 nM 3H-DTG, rat brain without cerebellum, 25° C., 20 min.
Experimental: INHIBITION OF 3H-DTG BINDING TO SIGMA RECEPTORS IN RAT BRAIN IN VITRO
By this method the inhibition by drugs of the binding of 2 nM ^3 H-DTG (1,3,di-o-tolyl guanidine) to sigma receptors in homogenates or membranes from rat brain without cerebellum is determined in vitro as modified from Weber et al. Proc. Natl. Acad. Sci. 1986, 83,8784.
Homogenate: Rats (150-250 g) are decapitated and the brains (without cerebellum) quickly removed and placed on ice, weighed and homogenized in 100 vol ice-cold (0° C.) 50 mM Tris-buffer (pH 7.7) in an ethanol rinsed glass/teflon homogenizer at 0° C. and kept on ice until use.
P2-membranes: Brains are homogenized in 10 vol 0.32 M sucrose in an ethanol rinsed glass/teflon homogenizer with 10 strokes up and down. The homogenate is centrifuged for 10 min at 900×gm at 4° C. The supernatant is decanted and centrifuged for 20 min at 50,000 gm at 4° C. The resulting pellet is resuspended in 10 vol ice-cold […] Tris-buffer (pH 7.7) and incubated for 30 min. at 37° C. The membrane suspension is then centrifuged for further 20 min. at 50,000 gm at 4° C. The pellet is resuspended in 50 vol. of ice-cold Tris-buffer and used immediately.
0.5 ml 50 mM Tris-buffer (pH 7.7), 0.25 ml displacer (6×100 μM DTG, 6× [test compound], or Tris-buffer), and 0.25 ml 6×2 nM. ^3 H-DTG are mixed into 5 ml s plastic test tubes and kept at 4° C. until use. The binding reaction is initiated by mixing 0.5 ml tissue suspension into this solution and incubate at 25° C. for 20 min. Glass fiber filters (Whatman GF/B) are placed on the filter machine which is then closed tightly. Just before filtration vacuum is applied, and the filters washed with 0.1% PEI solution from a spray bottle followed by one wash with Tris-buffer.
The binding reaction is stopped by filtration of the assay mixture at reduced pressure (750 mbar) followed by further 3 washes with 5 ml ice-cold Tris-buffer. The filters are then placed in counting vials and 4 ml scintillation solution added. The vials are counted in a Beckmann scintillation counter.
50 mM Tris-buffer pH 7.7: 7.38 g Trizma--7.7 plus distilled H2 O ad 1 liter. 100 ml 10% polyethylenimine (PEI): 100 ml dest. H2 O is added to approx. 20 g 50% PEI which is solubilized by stirring and heating. Diluted (1+99) before use. 6×2 nM ^3 H-DTG: The exact volume depends on the actual concentration of the batch, but is made as close as possible to 12 nM. The containers for the radioactive solution is rinsed in 96% ethanol before use.
^3 H-DTG was obtained from NEN Research Products, Du Pont Denmark. Specific activity 62.3 Ci/mmol.
The known sigma receptor ligands BMY 14802 and rimcazole were included in the test for comparison purposes.

SMILES | IC50
Fc1ccc(C2CCN(CCCC3COc4ccc(F)cc43)CC2)cc1 (stereo not drawn) [Compound 11a, 2,3-Dihydro-5-fluoro-3-[3-(4-(4-fluorophenyl)-1-piperidinyl)-1-propyl]benzofuran] | 0.31 nM
Cc1ccc(-n2cc(CCCCN3CCC4(CC3)COCc3ccccc34)c3ccccc32)cc1 [Compound 9i, 1'-(4-(1-(4-Methylphenyl)-3-indolyl]-1-butyl]spiro[1H-2-benzopyran-4(3H), 4'-piperidine]] | 0.62 nM
CC(C)c1ccc(C2CCN(CCCCc3cn(-c4ccc(F)cc4)c4ccccc34)CC2)cc1 [Compound 9n, 1-(4-Fluorophenyl)-3-[4-(4-(4-isopropylphenyl)-1-piperidyl)-1-butyl]indole] | 6.3 nM
c1ccc2c(c1)COC21CCN(CCCCc2cn(-c3nccs3)c3ccccc23)CC1 [Compound 9q, 1'-[4-(1-(2-Thiazolyl)-3-indolyl)-1-butyl]spiro[isobenzofuran-1(3H) ,4'-piperidine]] | 0.12 nM
Fc1ccc(-n2cc(CCCCN3CCC(c4cccc(C(F)(F)F)c4)CC3)c3ccccc32)cc1 [Compound 9t, 1-(4-Fluorophenyl)-3-[4-(4-(3-trifluoromethylphenyl)-1-piperidyl)-1-butyl]indole] | 3.2 nM
C1=C(CCCCN2CCC3(CC2)OCc2ccccc23)c2ccccc2C1 [Compound 27, 1'-(4-(1H-Inden-3-yl)-1-butyl)-spiro[isobenzofuran-1(3H) ,4'-piperidine]] | 0.11 nM
c1ccc2c(c1)COC21CCN(CCCc2noc3ccccc23)CC1 [Compound 20, 1'-(3-(1,2-Benzisoxazol-3-yl)-1-propyl)spiro[isobenzofuran-1(3H) ,4'-piperidine]] | 0.63 nM
Cc1ccc2c(c1)COC21CCN(CCCCc2cn(-c3ccc(F)cc3)c3ccccc23)CC1 [Compound 9h, 1'-[4-[1-(4-Fluorophenyl)-3-indolyl]-1-butyl]-5-methylspiro[isobenzofuran-1(3H),4'-piperidine]] | 2.3 nM
c1ccc2c(c1)COC21CCN(CCOCc2csc3ccccc23)CC1 [Compound 35a, 1'-[2-(Benzo[b]thiophen-3-ylmethyloxy)-1-ethyl]spiro[isobenzofuran-1(3H),4'-piperidine]] | 0.73 nM
c1ccc2c(c1)COCC21CCN(CCCCC2CNc3ccccc32)CC1 (stereo not drawn) [Compound 13c, 1'-[4-(2,3-Dihydro-3-indolyl)-1-butyl]spiro[1H-2-benzopyran-4(3H) ,4'-piperidine]] | 4.8 nM
CN(C)c1ccc(C2CCN(CCCCc3cn(-c4ccc(F)cc4)c4ccccc34)CC2)cc1 [Compound 9o, 1-(4-Fluorophenyl)-3-[4-(4-(4-dimethylaminophenyl)-1-piperidyl)-1-butyl]indole] | 6.7 nM
C(=CC1CCc2ccccc21)CCN1CCC2(CC1)OCc1ccccc12 (stereo not drawn) [Compound 29, 1'-[4-(1-Indanyl)-but-3-en-1-yl]-spiro[isobenzofuran-1(3H),4'-piperidine]] | 0.12 nM
Fc1ccc(-n2cc(CCCCN3CCC4(CC3)OCc3ccccc34)c3cc(F)ccc32)cc1 [Compound 9b, 1'-[4-[5-Fluoro-1-(4-fluorophenyl)-3-indolyl]-1-butyl]spiro[isobenzofuran-1(3H), 4'-piperidine]] | 0.06 nM
c1ccc2c(c1)COC21CCN(CCCOC2CCCCC2)CC1 [Compound 2j, 1'-(3-Cyclohexyloxy-1-propyl)spiro[isobenzofuran-1(3H),4'-piperidine]] | 0.07 nM
c1ccc(CCCN2CCC3(CC2)OCc2ccccc23)cc1 [Compound 4d, 1'-(3-Phenyl-1-propyl)-spiro[isobenzofuran-1(3H),4'-piperidine]] | 1.1 nM
Fc1ccc(-n2cc(OCCCN3CCC4(CC3)OCc3ccccc34)c3ccc(Cl)cc32)cc1 [Compound 8b, 1'-[3-[6-Chloro-1-(4-fluorophenyl)-3-indolytoxy)-1-propyl]spiro[isobenzofuran-1(3M),4'-piperidine]] | 1.7 nM
c1ccc2c(c1)COC21CCN(CCCCc2cn(-c3ccncc3)c3ccccc23)CC1 [Compound 5g, 1'-[4-[1-(4-Pyridyl)-3-indolyl]-1-butyl]spiro[isobenzofuran-1(3H),4'-piperidine]] | 4 nM
c1ccc2c(c1)COC1(CCN(CCCSc3csc4ccccc34)CC1)C2 [Compound 31b, 1'-[3-(Benzo[b]thiophen-3-ylthio)-1-propyl] spiro[3H-2-benzopyran-3,4'-piperidine]] | 2.6 nM

SMILES | IC50
O=S1(=O)CC(=CCCCN2CCC3(CC2)OCc2ccccc23)c2ccccc21 [Compound 32, 1'-[4-(2. 3-Dihydro-benzo[b]thiophen-3-yliden)-1-butyl]spiro[isobenzofuran-1(3H),4'-piperidine]-S,S-dioxide] | 0.89 nM
OC(CCCN1CCC2(CC1)OCc1ccccc12)c1ccc(F)cc1 (stereo not drawn) [Compound 26a, 1'-[4-(4-Fluorophenyl)-4-hydroxy-1-butyl]-spiro[isobenzofuran-1(3H),4'-piperidine]] | 0.89 nM
CCCCCN1CCC2(CC1)OCc1ccccc12 [Compound 1b, 1'-Pentylspiro[isobenzofuran-1(3H),4'-piperidine]] | 3.7 nM
c1csc(-n2cc(CCCCN3CCC4(CC3)OCc3ccccc34)c3ccccc32)c1 [Compound 5d, 1'-[4-[1-(2-Thienyl)-3-indolyl]-1-butyl]spiro[isobenzofuran-1(3H),4'-piperidine]] | 0.24 nM
Fc1ccc(-n2cc(CCCCN3C4CCC3CC3(C4)OCc4ccccc43)c3ccccc32)cc1 (stereo not drawn) [Compound 9d] | 26 nM
Fc1ccc2[nH]cc(CCCCN3CCC4(CC3)OCc3ccccc34)c2c1 [Compound 2aa] | 0.3 nM
c1ccc2c(c1)COCC21CCN(CCCCCc2c[nH]c3ccccc23)CC1 [Compound 2x, 1'-[5-(3-Indolyl)-1-pentyl]-spiro[1H-2-benzopyran-4(3H),4'-piperidine]] | 1.6 nM
O=S(=O)(CCCN1CCC2(CC1)OCc1ccccc12)C1CCCCC1 [Compound 2r, 1'-(3-Cyclohexylsulfonyl-1-propyl)spiro[isobenzofuran-1(3H),4'-piperidine]] | 3 nM
Fc1ccc2c(c1)C1(CCN(CCCCc3c[nH]c4ccccc34)CC1)OC2 [Compound 2jj, 6-Fluoro-1'-(4-(3-indolyl)-1-butyl)spiro[isobenzofuran-1(3H),4'-piperidine]] | 1.4 nM
Fc1ccc(C2=CC3CCC(C2)N3CCCCc2cn(-c3ccc(F)cc3)c3ccccc23)cc1 (stereo not drawn) [Compound 23, 1-(4-Fluorophenyl)-3-[4-[3-(4-fluorophenyl)-8-azabicyclo[3,2,1]-oct-2-en-8-yl]-1-butyl]-indol] | 2.5 nM
FC(F)(F)c1ccc2[nH]nc(CCCCN3CCC4(CC3)OCc3ccccc34)c2c1 [Compound 18a, 1'-[4-(5-Trifluoromethylindazol-3-yl)-1-butyl]-spiro[isobenzofuran-1(3H),4'-piperidine]] | 0.56 nM
O=S1(=O)CC(CCCCN2CCC3(CC2)OCc2ccccc23)c2ccccc21 (stereo not drawn) [Compound 33, 1'-[4-(2,3-Dihydro-benzo[b]thiophen-3-yl)-1-butyl]spiro[isobenzofuran-1(3H),4'-piperidine]-S,S-dioxide] | 0.95 nM
c1ccc2c(c1)COC21CCN(CCCCc2nsc3ccccc23)CC1 [Compound 22, 1'-(4-(1,2-Benzisothiazol-3-yl)-1-butyl)spiro[isobenzofuran-1(3H),4'-piperidine]] | 0.05 nM
c1ccc2c(c1)COC21CCN(CCCCc2csc3ccccc23)CC1 [Compound 10a, 1'-(4-(Benzo[b]thiophen-3-yl)-1-butyl)spiro[isobenzofuran-1(3H),4'-piperidine]] | 0.09 nM
c1ccc(CCCCN2CCC3(CC2)Cc2ccccc2CO3)cc1 [Compound 2g, 1,4-Dihydro-1'-(4-phenyl-1-butyl)spiro[3H-2-benzopyran-3,4'-piperidine]] | 0.36 nM
c1ccc(SCCCN2CCC3(CC2)OCc2ccccc23)cc1 [Compound 2p, 1'-(3-Phenylthio-1-propyl)spiro[isobenzofuran-1(3H),4'-piperidine]] | 0.32 nM
COc1ccccc1C1CCN(CCCCc2c[nH]c3ccccc23)CC1 [Compound 2gg, 3-[4-(4-(2-Methoxyphenyl)-1-piperidinyl)-1-butyl]indol] | 3.3 nM
Fc1ccc(C2CCN(CCCCc3c[nH]c4cc(Cl)c(Cl)cc34)CC2)cc1 [Compound 2ee, 5,6-Dichloro-3-[4-(4-(4-fluorophenyl)-1-piperidyl)-1-butyl]-indole] | 1 nM
